# Test results reported in ChEMBL document CHEMBL4038351, “Structure-Guided Development of Covalent and Mutant-Selective Pyrazolopyrimidines to Target T790M Drug Resistance in Epidermal Growth Factor Receptor” (J Med Chem, 2017).
# Activity calls are given as the source filed them. The rule behind the calls is not given here.
# How the values were obtained:
# [1] = system: HCC827; experiment: cells; format: functional, cell-based; conditions: Homo sapiens
# [2] = system: NCI-H1975; experiment: cells; format: functional, cell-based; conditions: Homo sapiens
# [3] = system: A549; experiment: cells; format: ADME, cell-based; conditions: Homo sapiens
# [4] = Permeability of the compound at 500 uM incubated for 20 hrs by PAMPA; format: physicochemical
# [5] = Apparent permeability across apical to basolateral side in human Caco2 cells at 5 uM incubated for 2 hrs; format: ADME, cell-based, Caco-2; conditions: Caco-2
# [6] = Apparent permeability across basolateral to apical side in human Caco2 cells at 5 uM incubated for 2 hrs; format: ADME, cell-based, Caco-2; conditions: Caco-2
# [7] = Metabolic stability in human plasma at 5 uM incubated for 1 hr by LC-MS method; format: ADME, cell-free; conditions: read-out: Stability
# [8] = Metabolic stability in mouse plasma at 5 uM incubated for 1 hr by LC-MS method; format: ADME, cell-free; conditions: read-out: Stability
# [9] = Fraction unbound in mouse 100% plasma at 5 uM incubated for 6 hrs by LC-MS method; format: ADME, cell-free
# [10] = Kinetic solubility in Hepes buffer at 500 uM at pH 7.4 after 90 mins; format: physicochemical; conditions: read-out: Kinetic_solubility
# [11] = in vitro; conditions: mouse, liver microsomes
# [12] = in vitro; conditions: human, liver microsomes
# [13] = system: A-431; experiment: cells; format: ADME, cell-based; conditions: Homo sapiens
# [14] = Volume of distribution at steady state in RjOrl:SWISS (CD1) mouse plasma at 2 mg/kg, iv; format: ADME, organism-based; conditions: read-out: Vdss
# [15] = Clearance in RjOrl:SWISS (CD1) mouse plasma at 2 mg/kg, iv; format: ADME, organism-based
# [16] = AUC in RjOrl:SWISS (CD1) mouse plasma at 2 mg/kg, iv; format: ADME, organism-based
# [17] = Initial concentration in RjOrl:SWISS (CD1) mouse plasma at 2 mg/kg, iv; format: ADME, organism-based
# [18] = Half life in RjOrl:SWISS (CD1) mouse plasma at 2 mg/kg, iv; format: ADME, organism-based
# [19] = Half life in RjOrl:SWISS (CD1) mouse plasma at 20 mg/kg, ip; format: ADME, organism-based
# [20] = Total Cmax in RjOrl:SWISS (CD1) mouse plasma at 20 mg/kg, ip; format: ADME, organism-based; parameters: dose 20 mg/kg, route intraperitoneal
# [21] = AUC in RjOrl:SWISS (CD1) mouse plasma at 20 mg/kg, ip; format: ADME, organism-based
# [22] = system: Mus musculus; experiment: Bioavailability in RjOrl:SWISS (CD1) mouse plasma at 20 mg/kg, ip; format: ADME, organism-based; conditions: in vivo
# [23] = Half life in RjOrl:SWISS (CD1) mouse plasma at 20 mg/kg, po administered via gavage; format: ADME, organism-based
# [24] = Cmax in RjOrl:SWISS (CD1) mouse plasma at 20 mg/kg, po administered via gavage; format: ADME, organism-based; parameters: dose 20 mg/kg, route oral
# [25] = AUC in RjOrl:SWISS (CD1) mouse plasma at 20 mg/kg, po administered via gavage; format: ADME, organism-based
# [26] = Oral bioavailability in RjOrl:SWISS (CD1) mouse plasma at 20 mg/kg administered via gavage; format: ADME, organism-based
# [27] = system: Mus musculus; experiment: Toxicity in RjOrl:SWISS (CD1) mouse at 2 mg/kg, iv; format: organism-based; conditions: in vivo
# [28] = system: Mus musculus; experiment: Toxicity in RjOrl:SWISS (CD1) mouse at 20 mg/kg, ip; format: organism-based; conditions: in vivo
# [29] = system: Mus musculus; experiment: Toxicity in RjOrl:SWISS (CD1) mouse at 20 mg/kg, po administered via gavage; format: organism-based; conditions: in vivo
# [30] = Ratio of total Cmax in RjOrl:SWISS (CD1) mouse plasma at 20 mg/kg, ip to EC50 for antiproliferative activity against human NCI-H1975 cells harboring EGFR-L858R/T790M double mutant
# [31] = system: Mus musculus; experiment: Free Cmax in RjOrl:SWISS (CD1) mouse plasma at 20 mg/kg, ip; format: ADME, organism-based; conditions: in vivo
# [32] = Ratio of free Cmax in RjOrl:SWISS (CD1) mouse plasma at 20 mg/kg, ip to EC50 for antiproliferative activity against human NCI-H1975 cells harboring EGFR-L858R/T790M double mutant
# [33] = system: Mus musculus; experiment: Time duration during which total plasma concentration stays above in vitro EC50 for human NCI-H1975 cells harboring EGFR-L858R/T790M double mutant in RjOrl:SWISS (CD1) mouse at 20 mg/kg, ip
# [34] = system: Mus musculus; experiment: Time duration during which free plasma concentration stays above in vitro EC50 for human NCI-H1975 cells harboring EGFR-L858R/T790M double mutant in RjOrl:SWISS (CD1) mouse at 20 mg/kg, ip
# [35] = system: Epidermal growth factor receptor (Homo sapiens), P00533 [L858R,T790M]; experiment: Covalent binding affinity to human recombinant GST-tagged EGFR L858R/T790M double mutant expressed in baculovirus expression system by mass spectrometry
# [36] = target: Epidermal growth factor receptor (Homo sapiens, UniProt P00533)
# [37] = target: Epidermal growth factor receptor (Homo sapiens, UniProt P00533, L858R)
# [38] = target: Epidermal growth factor receptor (Homo sapiens, UniProt P00533, L858R/T790M)
# [39] = in vitro; conditions: human, Caco-2
# [40] = system: A549; experiment: Antiproliferative activity against human A549 cells harboring KRAS-G12S mutant at 30 uM incubated for 96 hrs measured on day 5 by CellTiterGlo assay; format: cell-based; conditions: a549, 96 h
# [41] = system: A-431; experiment: Antiproliferative activity against human A431 cells expressing wild type EGFR at 30 uM incubated for 96 hrs measured on day 5 by CellTiterGlo assay; format: cell-based; conditions: a-431, 96 h
# [42] = system: HCC827; experiment: Antiproliferative activity against human HCC827 cells harboring EGFR-delE746_A750 mutant at 30 uM incubated for 96 hrs measured on day 5 by CellTiterGlo assay; format: functional, cell-based
# [43] = system: NCI-H1975; experiment: Antiproliferative activity against human NCI-H1975 cells harboring EGFR-L858R/T790M double mutant at 30 uM incubated for 96 hrs measured on day 5 by CellTiterGlo assay; format: functional, cell-based
structure (smiles),measurement,setting,value
C=CC(=O)Nc1cc(Nc2nccc(-c3cn(C)c4ccccc34)n2)c(OC)cc1N(C)CCN(C)C [OSIMERTINIB],EC50,[1],< 14 nM
same,EC50,[3],1830 nM
same,permeability,[4],112%
same,"Papp A→B at 2 h, 5 µM",[5],0.084 ×10⁻⁶ cm/s
same,"Papp B→A at 2 h, 5 µM",[6],0.06 ×10⁻⁶ cm/s
same,"remaining at 1 h, 5 µM",[7],100%
same,"remaining at 1 h, 5 µM",[8],100%
same,"fraction unbound at 6 h, 5 µM",[9],0.03
same,"solubility kinetic at 1.5 h, 500 µM",[10],265 µM
same,"microsomal CLint at 50 min, 3 µM",[11],51 µL/min/mg
same,"microsomal CLint at 50 min, 3 µM",[12],4.1 µL/min/mg
C=CC(=O)N1CCC[C@@H](n2nc(-c3cn(C)c4ccccc34)c3c(N)ncnc32)C1,EC50,[13],6780 nM
same,EC50,[1],90 nM
same,EC50,[2],230 nM
same,EC50,[3],23300 nM
same,permeability,[4],66%
same,"Papp A→B at 2 h, 5 µM",[5],0.3 ×10⁻⁶ cm/s
same,"Papp B→A at 2 h, 5 µM",[6],0.29 ×10⁻⁶ cm/s
same,"remaining at 1 h, 5 µM",[7],95%
same,"remaining at 1 h, 5 µM",[8],100%
same,"fraction unbound at 6 h, 5 µM",[9],0.12
same,Vd,[14],12.4 L/kg
same,clearance,[15],277 mL/min/kg
same,AUC,[16],121 ng·h/mL
same,C0,[17],138 ng/mL
same,half-life,[18],36 min
same,half-life,[19],14.4 min
same,Cmax,[20],4540 ng/mL
same,AUC,[21],1890 ng·h/mL
same,F,[22],156%
same,half-life,[23],35.4 min
same,Cmax,[24],38 ng/mL
same,AUC,[25],29 ng·h/mL
same,bioavailability,[26],2.4%
same,"solubility kinetic at 1.5 h, 500 µM",[10],364 µM
same,Activity,[27],Non-Toxic
same,Activity,[28],Non-Toxic
same,Activity,[29],Non-Toxic
same,Ratio,[30],50
same,fCmax,[31],1.36 µM
same,Ratio,[32],6
same,Time,[33],75 min
same,Time,[34],30 min
same,Activity,[35],Active
same,IC50,[36],40 nM
same,IC50,[37],2 nM
same,IC50,[38],3 nM
same,"efflux ratio at 2 h, 5 µM",[39],1
same,"microsomal CLint at 50 min, 3 µM",[11],1980 µL/min/mg
same,"microsomal CLint at 50 min, 3 µM",[12],462 µL/min/mg
C=CC(=O)Nc1cccc(Nc2nc(Nc3ccc(N4CCN(C(C)=O)CC4)cc3OC)ncc2C(F)(F)F)c1 [ROCILETINIB],EC50,[1],45 nM
same,EC50,[2],100 nM
same,permeability,[4],88%
same,"Papp A→B at 2 h, 5 µM",[5],0.05 ×10⁻⁶ cm/s
same,"Papp B→A at 2 h, 5 µM",[6],0.068 ×10⁻⁶ cm/s
same,"remaining at 1 h, 5 µM",[7],78%
same,"remaining at 1 h, 5 µM",[8],75%
same,"fraction unbound at 6 h, 5 µM",[9],0.01
same,"solubility kinetic at 1.5 h, 500 µM",[10],10 µM
same,"microsomal CLint at 50 min, 3 µM",[11],81 µL/min/mg
same,"microsomal CLint at 50 min, 3 µM",[12],5.1 µL/min/mg
C=CC(=O)N1CCC[C@@H](n2nc(-c3cccc4ccccc34)c3c(N)ncnc32)C1,EC50,[13],29400 nM
same,EC50,[1],500 nM
same,EC50,[2],490 nM
same,permeability,[4],82%
same,"remaining at 1 h, 5 µM",[7],100%
same,"remaining at 1 h, 5 µM",[8],90%
same,"fraction unbound at 6 h, 5 µM",[9],0.15
same,Activity,[40],Non-Toxic
same,"solubility kinetic at 1.5 h, 500 µM",[10],38 µM
same,Activity,[35],Active
same,IC50,[36],60 nM
same,IC50,[38],2 nM
same,"microsomal CLint at 50 min, 3 µM",[11],2770 µL/min/mg
same,"microsomal CLint at 50 min, 3 µM",[12],770 µL/min/mg
C=CC(=O)N1CCC[C@@H](n2nc(-c3ccc4ccccc4c3)c3c(N)ncnc32)C1,EC50,[13],3600 nM
same,EC50,[1],< 14 nM
same,EC50,[2],140 nM
same,EC50,[3],11600 nM
same,permeability,[4],73%
same,"Papp A→B at 2 h, 5 µM",[5],0.51 ×10⁻⁶ cm/s
same,"Papp B→A at 2 h, 5 µM",[6],0.13 ×10⁻⁶ cm/s
same,"remaining at 1 h, 5 µM",[7],94%
same,"remaining at 1 h, 5 µM",[8],86%
same,"fraction unbound at 6 h, 5 µM",[9],0.02
same,"solubility kinetic at 1.5 h, 500 µM",[10],248 µM
same,Activity,[35],Active
same,IC50,[36],20 nM
same,IC50,[37],1 nM
same,IC50,[38],< 1 nM
same,"efflux ratio at 2 h, 5 µM",[39],0.3
same,"microsomal CLint at 50 min, 3 µM",[11],2310 µL/min/mg
same,"microsomal CLint at 50 min, 3 µM",[12],770 µL/min/mg
CCC(=O)N1CCC[C@@H](n2nc(-c3ccccc3)c3c(N)ncnc32)C1,Activity,[41],Non-Toxic
same,Activity,[42],inactive
same,Activity,[43],inactive
same,Activity,[40],Non-Toxic
same,IC50,[36],7300 nM
same,IC50,[37],4700 nM
same,IC50,[38],> 10000 nM
CCC(=O)N1CCC[C@@H](n2nc(-c3cccc(C(F)(F)F)c3)c3c(N)ncnc32)C1,Activity,[41],Non-Toxic
same,Activity,[42],inactive
same,Activity,[43],inactive
same,Activity,[40],Non-Toxic
same,IC50,[36],> 10000 nM
same,IC50,[37],> 10000 nM
same,IC50,[38],> 10000 nM
